# In the NIST ThermoML archive (doi:10.1021/je900524t):
# Numbers after ± are expanded uncertainties.
# Conditions: Crystal; visual observation
compound,measurement,value
"F[P-](F)(F)(F)(F)F.F[P-](F)(F)(F)(F)F.c1cc[n+](CC[n+]2ccccc2)cc1 [1,1'-(ethane-1,2-diyl)bis(pyridin-1-ium) hexafluorophosphate]",Normal melting temperature,220.20 ± 1.4 °C
